Laboratory results taken from patent publication US9266904B2, “6-bridged heteroaryldihydropyrimidines for the treatment and prophylaxis of hepatitis B virus infection” (priority 2013, dated 2016).
In brackets after ≈: the same amount, converted by molar mass. Read-outs that look alike come from different tables or passages of the source.

What was measured:
[1] = tested on: HBV replication in HepG2.2.15 cells; assay: Anti-HBV activity in vitro in HepG2.2.15 cells (extracellular HBV DNA by qPCR); assay type: cell-based; settings: Hepatitis B virus
Excerpt: HepG2.2.15 and HepDE19 are stably-transfected cell lines containing the HBV genome. Both cell lines are derived from the hepatoblastoma cell line Hep G2 (American Type Culture Collection, ATCC® HB-8065™) by the published procedures described in references: M A Selles et al. Proc. Natl. Acad. Sci. USA 1987, 84, 1005-1009 and H Guo et al. Journal of Virology 2007, 81, 12472-12484, respectively. Both cell lines were maintained in Dulbecco's modified Eagle's medium (DMEM)-F12 medium supplemented with 10% fetal bovine serum, 100 U/mL penicillin, 100 μg/mL streptomycin, and 0.5 mg/mL of G418.
While HepG2.2.15 cells constitutively support HBV replication and production of virus particles, HepDE19 cells are inducible by tetracycline. Addition of 1 μg/mL tetracycline in culture medium suppresses HBV replication in HepDE19 cells, whereas switching to tetracycline-free medium resumes this process.
HepG2.2.15 cells were seeded into 96-well plates (3×10^4 cells in 100 μL media per well) and incubated overnight at 37° C. The test compounds were serially half-log diluted in DMSO, then diluted 100 times in culture media. 100 μL diluted compounds were added into the plates to reach 0.5% final concentration of DMSO in every well. Five days after compound treatment, culture supernatant was collected for further analysis.
For quantitative PCR detection of extracellular HBV DNA, 100 μL culture supernatant was collected and processed in MagNA Pure 96 Nucleic Acid Purification System (Roche Applied Science) for viral DNA extraction. The extracted samples were subjected to HBV DNA quantification by qPCR. The effective compound concentration at which HBV replication is inhibited by 50% (EC50) was determined.
The Examples were tested in the above assays as described herein and found to have EC50<1 μM in HepG2.2.15 assay.

[2] = Lyophilisation solubility assay (Lysa); assay type: physicochemical; settings: thermodynamic from solid
Procedure: The aqueous solubility is an important physico-chemical property that plays a significant role in various physical and biological processes. It is desirable to have good solubility which enables good permeability and gastric and intestinal absorption, linear dose proportionality, less PK variability, and easy formulation for PD/PK studies. […] Lyophilisation solubility assay (Lysa) is a well adopted high throughput assay to measure compound solubility in industry.
Samples are prepared in duplicate from 10 mM DMSO stock solutions. After evaporation of DMSO with a centrifugal vacuum evaporator, the residue is solved in 0.05 M phosphate buffer (pH 6.5), stirred for one hour and then shook for two hours. After one night, the solution is filtered using a microtiter filter plate and then the filtrate and its 1/10 dilution are then analyzed by direct UV measurement or by HPLC-UV. In addition a four-point calibration curve is prepared from the 10 mM stock solutions and used for the solubility determination of the compounds. The results are in μg/ml. In case the percentage of sample measured in solution after evaporation divided by the calculated maximum of sample amount is bigger than 80% the solubility is reported as bigger than this value.

[3] = Human microsomal clearance assay; assay type: in vitro ADME; settings: human, 1 μM, pH 7.4
Procedure: Microsomes were preincubated with test compound for 10 minutes at 37° C. in 100 mM phosphate buffer with pH 7.4. The reactions were initiated by adding NADPH regenerating system to give a final incubation volume of 400 μL. The incubations finally contained 1 μM test compound, 0.5 mg/mL liver microsomal protein, 3.0 mM glucose 6-phosphate, 1.0 mM NADP, 3.0 mM MgCl2 and 0.05 mg/mL glucose 6-phosphate dehydrogenase in 100 mM phosphate buffer with pH 7.4. After incubation times of 0, 3, 6, 9, 15 and 30 minutes, 50 μL, incubation was transferred to the quench solution containing the internal standard which was 2 μM tolbutamide. After precipitation and centrifugation, test compound concentrations in the samples were determined by LC-MS/MS. Controls of no NADPH regenerating system at zero and 30 minutes were also prepared and analyzed.

[4] = HepG2.2.15, Anti-HBV activity in HepG2.2.15 cells, read-out: EC50

Row | SMILES | EC50 [1, 4] [nM] | solubility thermodynamic ([2]; pH 6.5, aqueous buffer) [µg/mL] | EC50 ([1]; HepG2.2.15) [nM] | solubility thermodynamic ([2]; aqueous buffer, 0.05 M phosphate buffer (pH 6.5), reported as bigger than the value if more than 80% of the sample is in solution, read-out: Lysa) [µg/mL] | CLh [3] [mL/min/kg]
1 | COC(=O)C1=C(CN2C3COCC2CN(C(C)C)C3)NC(c2nccs2)=N[C@H]1c1ccc(F)cc1Cl [Example 13, (R)-4-(2-Chloro-4-fluoro-phenyl)-6-(7-isopropyl-3-oxa-7,9-diaza-bicyclo[3.3.1]non-9-ylmethyl)-2-thiazol-2-yl-1,4-dihydro-pyrimidine-5-carboxylic acid methyl ester] | 270 | 313 (≈ 586 µM) | – | – | –
2 | COC(=O)C1=C(CN2C3COCC2CN(C(C)=O)C3)NC(c2nccs2)=N[C@H]1c1ccc(F)cc1Cl [Example 15, (R)-6-(7-Acetyl-3-oxa-7,9-diaza-bicyclo[3.3.1]non-9-ylmethyl)-4-(2-chloro-4-fluoro-phenyl)-2-thiazol-2-yl-1,4-dihydro-pyrimidine-5-carboxylic acid methyl ester] | 43 | 233 (≈ 436 µM) | – | – | –
3 | COC(=O)C1=C(CN2C3CNC(=O)CC2COC3)NC(c2nccs2)=N[C@H]1c1ccc(F)cc1Cl (stereo partly drawn) [Example 34, (R)-4-(2-Chloro-4-fluoro-phenyl)-6-(4-oxo-8-oxa-3,10-diaza-bicyclo[4.3.1]dec-10-ylmethyl)-2-thiazol-2-yl-1,4-dihydro-pyrimidine-5-carboxylic acid methyl ester] | 42 | 263 (≈ 506 µM) | – | – | –
4 | COC(=O)C1=C(CN2CC3CC2CN3C(C)=O)NC(c2nccs2)=N[C@H]1c1ccc(F)cc1Cl (stereo partly drawn) [Example 41, (R)-6-(5-Acetyl-2,5-diaza-bicyclo[2.2.1]hept-2-ylmethyl)-4-(2-chloro-4-fluoro-phenyl)-2-thiazol-2-yl-1,4-dihydro-pyrimidine-5-carboxylic acid methyl ester] | – | – | 133 | > 552 | –
5 | COC(=O)C1=C(CN2[C@H]3C[C@H](CC(=O)O)C[C@@H]2C(F)(F)C3)NC(c2nccs2)=N[C@H]1c1ccc(F)cc1Cl [Example 110, 2-[(1S,3S,5R)-8-[[(4R)-4-(2-chloro-4-fluoro-phenyl)-5-methoxycarbonyl-2-thiazol-2-yl-1,4-dihydropyrimidin-6-yl]methyl]-6,6-difluoro-8-azabicyclo[3.2.1]octan-3-yl]acetic acid] | 44.3 | – | – | – | 4.1
6 | COC(=O)C1=C(CN2C3CCC2CN(C(C)=O)C3)NC(c2nccs2)=N[C@H]1c1ccc(F)cc1Cl [Example 122, Methyl (4R)-6-[(3-acetyl-3,8-diazabicyclo[3.2.1]octan-8-yl)methyl]-4-(2-chloro-4-fluoro-phenyl)-2-thiazol-2-yl-1,4-dihydropyrimidine-5-carboxylate] | 77.4 | – | – | – | 7.0
7 | CCOC(=O)C1=C(CN2C3COCC2C(F)(F)[C@@H](CC(=O)O)C3)NC(c2nccs2)=N[C@H]1c1ccc(F)c(F)c1C (stereo partly drawn) [Example 127, 2-[(7R)-9-[[(4S)-4-(3,4-difluoro-2-methyl-phenyl)-5-ethoxycarbonyl-2-thiazol-2-yl-1,4-dihydropyrimidin-6-yl]methyl]-6,6-difluoro-3-oxa-9-azabicyclo[3.3.1]nonan-7-yl]acetic acid] | 16.1 | – | – | – | 2.9
8 | CCOC(=O)C1=C(CN2C3COCC2C(F)(F)[C@@H](CC(=O)O)C3)NC(c2nccs2)=N[C@H]1c1cccc(F)c1Cl (stereo partly drawn) [Example 129, 2-[(7R)-9-[[(4R)-4-(2-chloro-3-fluoro-phenyl)-5-ethoxycarbonyl-2-thiazol-2-yl-1,4-dihydropyrimidin-6-yl]methyl]-6,6-difluoro-3-oxa-9-azabicyclo[3.3.1]nonan-7-yl]acetic acid] | 21 | – | – | – | 2.0
9 | CCOC(=O)C1=C(CN2C3CC(C(=O)O)CC2C(F)(F)C3)NC(c2nccs2)=N[C@H]1c1cccc(F)c1Cl (stereo partly drawn) [Example 150, 8-[[(4R)-4-(2-chloro-3-fluoro-phenyl)-5-ethoxycarbonyl-2-thiazol-2-yl-1,4-dihydropyrimidin-6-yl]methyl]-6,6-difluoro-8-azabicyclo[3.2.1]octane-3-carboxylic acid] | 7.7 | – | – | – | 3.1
